Measurements: ChEMBL document CHEMBL1201862, “PubChem BioAssay data set” (2004)
Calls of active or inactive are those of the source.

Assays:
[1] = biological target: T1, Methionyl-tRNA synthetase, putative (Trypanosoma brucei brucei, UniProt Q38C91); assay type: functional, Trypanosoma brucei brucei strain 927/4 GUTat10.1
T1 sequence (Q38C91 whole entry): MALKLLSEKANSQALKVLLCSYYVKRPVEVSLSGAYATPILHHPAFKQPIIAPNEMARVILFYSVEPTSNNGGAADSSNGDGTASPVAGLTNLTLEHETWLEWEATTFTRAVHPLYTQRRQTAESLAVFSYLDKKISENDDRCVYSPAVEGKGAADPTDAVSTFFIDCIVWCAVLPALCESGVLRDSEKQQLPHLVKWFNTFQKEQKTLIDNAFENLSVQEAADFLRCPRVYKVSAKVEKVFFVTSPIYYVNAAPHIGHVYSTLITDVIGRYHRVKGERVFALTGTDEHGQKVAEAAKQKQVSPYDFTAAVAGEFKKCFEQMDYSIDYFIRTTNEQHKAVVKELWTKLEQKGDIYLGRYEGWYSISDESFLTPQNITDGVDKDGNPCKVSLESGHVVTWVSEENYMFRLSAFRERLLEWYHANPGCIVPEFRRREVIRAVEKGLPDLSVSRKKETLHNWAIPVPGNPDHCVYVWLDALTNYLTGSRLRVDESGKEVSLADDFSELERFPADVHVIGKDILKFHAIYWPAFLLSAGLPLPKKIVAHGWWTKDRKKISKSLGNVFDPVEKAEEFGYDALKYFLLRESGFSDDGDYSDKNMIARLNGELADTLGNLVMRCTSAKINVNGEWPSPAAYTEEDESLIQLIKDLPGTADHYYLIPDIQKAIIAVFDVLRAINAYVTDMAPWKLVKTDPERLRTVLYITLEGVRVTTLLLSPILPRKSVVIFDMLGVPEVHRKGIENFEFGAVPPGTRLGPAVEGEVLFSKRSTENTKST

[2] = biological target: T1, Methionyl-tRNA synthetase, putative; assay type: functional, Trypanosoma brucei brucei strain 927/4 GUTat10.1; remark: listed apart in the source
[3] = Counterscreen for inhibitors of Trypanosoma brucei methionyl tRNA synthetase (MetRS): Luminescence-based cell-based high throughput dose response assay to identify compounds that are cytotoxic to Jurkat human T lymphocyte cells.; assay type: functional
[4] = cytotoxicity toward NIH3T3 fibroblasts, dose response, counter-screen, cell-based, ATP luminescence, mouse fibroblasts (AID 2010); assay type: functional;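 also: cells exposed to compound for about 90 hours before reading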
[5] = biological target: Protein Wnt-3a (Mus musculus, UniProt P27467); assay: Wnt3a-driven reporter signaling inhibition, dose response, selectivity assay for Gli-SUFU antagonist project, Wnt-LIGHT cells, luminescence (AID 651570); assay type: functional; conditions: read-out: IC50_Mean;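 also: Wnt-LIGHT reporter cells stimulated with conditioned medium from Wnt3a-producing cells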
Sequence of Protein Wnt-3a (P27467 whole entry): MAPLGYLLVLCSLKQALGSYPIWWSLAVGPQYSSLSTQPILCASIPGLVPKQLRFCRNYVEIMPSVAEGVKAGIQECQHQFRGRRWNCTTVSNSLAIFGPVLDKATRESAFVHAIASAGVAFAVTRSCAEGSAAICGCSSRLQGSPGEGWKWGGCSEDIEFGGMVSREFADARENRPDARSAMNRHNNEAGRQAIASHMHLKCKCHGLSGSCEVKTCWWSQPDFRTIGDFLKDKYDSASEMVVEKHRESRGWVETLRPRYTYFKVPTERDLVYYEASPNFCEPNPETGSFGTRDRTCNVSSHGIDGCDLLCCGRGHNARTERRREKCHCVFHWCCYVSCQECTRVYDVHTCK

[6] = inhibitors of intracellular T. cruzi replication, confirmation, NIH3T3 host cells, beta-gal luminescence (AID 2044); assay type: functional, cell-based;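 also: intracellular parasites grown in NIH/3T3 mouse fibroblasts as host cells; luminescent beta-galactosidase reporter signal from transgenic T. cruzi replicating inside host cells; inhibitors lower the luminescence signal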
[7] = biological target: T2, Corticotropin-releasing factor receptor 2/Corticotropin-releasing factor-binding protein (Homo sapiens, UniProt P24387+Q13324); assay: activators of CRF receptor 2 with binding protein – uHTS hits, confirmation (AID 602473); assay type: functional; conditions: read-out: EC50_Mean
T2 sequence (Q13324 whole entry): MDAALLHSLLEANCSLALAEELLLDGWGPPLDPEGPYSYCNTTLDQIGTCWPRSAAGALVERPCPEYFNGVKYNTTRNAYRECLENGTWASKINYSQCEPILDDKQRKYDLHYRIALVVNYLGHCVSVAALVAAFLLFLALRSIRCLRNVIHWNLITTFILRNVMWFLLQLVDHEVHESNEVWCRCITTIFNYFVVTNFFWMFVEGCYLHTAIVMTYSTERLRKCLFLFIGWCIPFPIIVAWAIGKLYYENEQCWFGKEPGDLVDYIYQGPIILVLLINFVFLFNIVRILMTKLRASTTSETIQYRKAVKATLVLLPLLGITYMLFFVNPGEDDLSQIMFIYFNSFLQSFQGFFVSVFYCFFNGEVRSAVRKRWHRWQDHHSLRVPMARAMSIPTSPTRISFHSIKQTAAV
T2 sequence (P24387 whole entry): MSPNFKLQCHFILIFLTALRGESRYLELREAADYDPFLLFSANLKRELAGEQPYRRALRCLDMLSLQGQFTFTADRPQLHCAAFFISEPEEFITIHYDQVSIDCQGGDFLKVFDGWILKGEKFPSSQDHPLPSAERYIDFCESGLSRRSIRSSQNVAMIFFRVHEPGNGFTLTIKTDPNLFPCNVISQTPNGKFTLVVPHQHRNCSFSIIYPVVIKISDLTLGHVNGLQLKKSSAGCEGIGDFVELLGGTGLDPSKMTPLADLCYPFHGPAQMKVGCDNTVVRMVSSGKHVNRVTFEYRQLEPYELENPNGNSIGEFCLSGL

[8] = biological target: T3, Calpain-2 catalytic subunit (Sus scrofa, UniProt P43367); assay: pig calpain II inhibitor potency, dose response, biochemical, fluorogenic peptide substrate (AID 1420); assay type: functional
T3 sequence (P43367 whole entry): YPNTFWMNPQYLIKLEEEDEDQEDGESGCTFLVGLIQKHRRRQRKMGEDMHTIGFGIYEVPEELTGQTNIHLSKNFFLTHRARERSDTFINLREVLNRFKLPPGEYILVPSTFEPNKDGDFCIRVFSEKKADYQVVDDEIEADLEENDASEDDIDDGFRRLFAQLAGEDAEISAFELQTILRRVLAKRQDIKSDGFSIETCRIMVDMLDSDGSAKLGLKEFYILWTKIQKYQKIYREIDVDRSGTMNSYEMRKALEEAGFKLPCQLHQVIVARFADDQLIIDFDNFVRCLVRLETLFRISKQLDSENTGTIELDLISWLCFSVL

[9] = biological target: T2, Corticotropin-releasing factor receptor 2/Corticotropin-releasing factor-binding protein; assay: Dose Response confirmation of uHTS hits for small molecule antagonists of the CRF-binding protein and CRF-R2 receptor complex.; assay type: functional; conditions: read-out: IC50_Mean
[10] = CRF-BP/CRF-R2 complex antagonists, dose response, cell-based, uHTS hits, 384-well (AID 651639); assay type: functional, Homo sapiens; conditions: read-out: IC50_Mean
[11] = biological target: 5-hydroxytryptamine receptor 2A (Mus musculus, UniProt P35363); assay type: functional, cell-based;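 also: CHO-K1 cells with tagged receptor and beta-arrestin; agonist potency measured as compound-induced activation of the receptor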
Sequence of 5-hydroxytryptamine receptor 2A (P35363 whole entry): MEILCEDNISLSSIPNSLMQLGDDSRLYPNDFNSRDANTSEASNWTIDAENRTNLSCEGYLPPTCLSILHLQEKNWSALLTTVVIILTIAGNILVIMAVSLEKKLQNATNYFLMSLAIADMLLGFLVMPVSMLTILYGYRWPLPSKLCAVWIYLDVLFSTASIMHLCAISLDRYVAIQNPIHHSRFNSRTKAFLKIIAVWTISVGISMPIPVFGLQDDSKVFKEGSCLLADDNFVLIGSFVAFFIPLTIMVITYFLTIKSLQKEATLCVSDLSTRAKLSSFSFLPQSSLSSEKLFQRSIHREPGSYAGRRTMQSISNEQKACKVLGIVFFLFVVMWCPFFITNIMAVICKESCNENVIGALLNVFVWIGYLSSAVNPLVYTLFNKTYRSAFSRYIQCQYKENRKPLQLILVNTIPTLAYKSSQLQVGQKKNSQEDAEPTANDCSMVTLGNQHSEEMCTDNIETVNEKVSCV

[12] = biological target: Mu-type opioid receptor (Homo sapiens, UniProt P35372); assay type: functional, cell-based;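 also: U2OS cells with beta-arrestin recruitment to OPRM1 by beta-gal complementation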
Sequence of Mu-type opioid receptor (P35372 whole entry): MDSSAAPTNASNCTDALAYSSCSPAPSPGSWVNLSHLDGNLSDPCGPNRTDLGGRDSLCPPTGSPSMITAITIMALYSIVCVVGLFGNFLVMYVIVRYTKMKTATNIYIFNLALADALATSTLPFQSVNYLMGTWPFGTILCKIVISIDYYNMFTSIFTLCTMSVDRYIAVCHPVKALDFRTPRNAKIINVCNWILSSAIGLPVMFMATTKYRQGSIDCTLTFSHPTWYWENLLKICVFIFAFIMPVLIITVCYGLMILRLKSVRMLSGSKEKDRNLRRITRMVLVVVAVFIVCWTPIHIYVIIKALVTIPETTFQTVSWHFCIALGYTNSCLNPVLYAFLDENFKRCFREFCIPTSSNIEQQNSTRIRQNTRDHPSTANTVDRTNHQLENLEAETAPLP

[13] = cells; assay type: functional, cell-based
[14] = biological target: Genome polyprotein (dengue virus type 2, UniProt P29990); assay: Dengue-2 NS5 methyltransferase inhibitors, primary screen, biochemical, confirmation dose response (AID 588689); assay type: functional
Sequence of Genome polyprotein (P29990 2492-3391 limits assumed): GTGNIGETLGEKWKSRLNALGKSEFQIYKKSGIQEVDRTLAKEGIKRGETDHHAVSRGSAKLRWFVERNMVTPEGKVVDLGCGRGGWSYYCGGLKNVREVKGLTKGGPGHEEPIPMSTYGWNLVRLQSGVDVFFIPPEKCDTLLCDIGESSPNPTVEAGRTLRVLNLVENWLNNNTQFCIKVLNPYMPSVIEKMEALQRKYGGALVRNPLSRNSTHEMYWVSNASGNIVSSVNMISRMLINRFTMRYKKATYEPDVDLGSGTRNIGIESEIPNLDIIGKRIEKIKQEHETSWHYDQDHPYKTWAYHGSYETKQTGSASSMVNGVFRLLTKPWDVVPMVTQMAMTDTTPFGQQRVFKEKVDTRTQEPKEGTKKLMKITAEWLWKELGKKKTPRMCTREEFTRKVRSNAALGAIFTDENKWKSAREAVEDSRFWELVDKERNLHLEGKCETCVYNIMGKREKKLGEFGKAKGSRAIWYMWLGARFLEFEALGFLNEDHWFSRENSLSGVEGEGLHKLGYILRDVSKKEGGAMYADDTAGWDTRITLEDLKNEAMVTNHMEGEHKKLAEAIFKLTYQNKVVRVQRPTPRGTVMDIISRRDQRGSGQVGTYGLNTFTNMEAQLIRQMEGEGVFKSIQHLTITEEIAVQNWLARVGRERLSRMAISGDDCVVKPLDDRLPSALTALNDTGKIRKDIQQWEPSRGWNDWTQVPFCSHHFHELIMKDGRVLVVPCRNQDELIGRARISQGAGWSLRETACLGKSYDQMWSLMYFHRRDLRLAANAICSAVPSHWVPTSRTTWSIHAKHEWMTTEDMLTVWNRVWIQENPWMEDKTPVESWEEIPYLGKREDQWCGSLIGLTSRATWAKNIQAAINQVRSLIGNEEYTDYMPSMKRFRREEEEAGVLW

[15] = test system: Vero; assay: cells; assay type: functional, cell-based; conditions: Chlorocebus sabaeus
[16] = biological target: Photoreceptor-specific nuclear receptor (Homo sapiens, UniProt Q9Y5X4); assay type: functional, cell-based;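 also: CHO-S cells with Gal4-NCOR and VP16-NR2E3 two-hybrid luciferase reporter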
Sequence of Photoreceptor-specific nuclear receptor (Q9Y5X4 whole entry, the tested form may be a part): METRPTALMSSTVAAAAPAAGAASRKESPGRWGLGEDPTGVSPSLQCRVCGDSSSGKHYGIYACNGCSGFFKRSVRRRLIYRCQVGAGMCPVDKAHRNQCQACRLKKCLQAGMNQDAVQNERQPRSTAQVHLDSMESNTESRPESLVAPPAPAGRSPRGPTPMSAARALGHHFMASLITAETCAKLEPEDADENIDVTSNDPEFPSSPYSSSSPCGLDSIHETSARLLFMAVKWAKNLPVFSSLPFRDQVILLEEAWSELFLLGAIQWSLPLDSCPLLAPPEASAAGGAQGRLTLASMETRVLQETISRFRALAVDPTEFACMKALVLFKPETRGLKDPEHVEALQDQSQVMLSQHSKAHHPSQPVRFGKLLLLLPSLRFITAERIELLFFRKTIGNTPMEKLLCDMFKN

[17] = biological target: Glucose-6-phosphate 1-dehydrogenase (Homo sapiens, UniProt P11413); assay: human G6PD enzyme inhibitors, dose response, selectivity assay for P. falciparum G6PD inhibitor project, biochemical, fluorescence (AID 504792); assay type: functional
Sequence of Glucose-6-phosphate 1-dehydrogenase (P11413 whole entry): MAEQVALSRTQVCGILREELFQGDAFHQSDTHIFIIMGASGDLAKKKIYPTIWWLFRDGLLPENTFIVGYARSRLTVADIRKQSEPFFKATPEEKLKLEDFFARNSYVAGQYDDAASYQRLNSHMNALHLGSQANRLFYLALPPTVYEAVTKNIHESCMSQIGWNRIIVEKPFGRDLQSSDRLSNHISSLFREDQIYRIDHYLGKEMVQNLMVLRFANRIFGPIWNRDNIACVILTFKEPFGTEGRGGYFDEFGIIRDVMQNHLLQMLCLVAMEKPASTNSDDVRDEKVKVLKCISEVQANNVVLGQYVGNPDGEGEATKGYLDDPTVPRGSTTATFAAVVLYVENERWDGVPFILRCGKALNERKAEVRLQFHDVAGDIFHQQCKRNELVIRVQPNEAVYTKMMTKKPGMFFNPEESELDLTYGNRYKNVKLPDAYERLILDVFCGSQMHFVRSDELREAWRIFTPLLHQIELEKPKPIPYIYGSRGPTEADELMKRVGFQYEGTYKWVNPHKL

[18] = cells; assay type: functional, cell-based; remark: listed apart in the source
[19] = biological target: T4, Endoribonuclease toxin MazF (Escherichia coli K-12, UniProt P0AE70); assay: MazF toxin RNase activators, dose response, biochemical, fluorescence, single-stranded RNA substrate, uHTS hits (AID 588481); assay type: functional
T4 sequence (P0AE70 whole entry): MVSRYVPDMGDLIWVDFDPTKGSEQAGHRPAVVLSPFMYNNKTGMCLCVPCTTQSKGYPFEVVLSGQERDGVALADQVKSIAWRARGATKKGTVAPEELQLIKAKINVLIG

[20] = biological target: T4, Endoribonuclease toxin MazF; assay: fluorescent RNA oligo signal without MazF, dose response, counter-screen for MazEF activator project, biochemical, fluorescence, single-stranded RNase substrate (AID 588502); assay type: functional

SMILES: O=C(Cc1ccc(Br)cc1)Nc1cccc(S(=O)(=O)N2CCOCC2)c1
- IC50 [1]: 3.47 µM (active)
- IC50 [2]: 7 µM (active)
- IC50 [3]: 82.3 µM (inactive)

SMILES: CCOc1ccc(-n2c(-c3ccc(Cl)cc3)c[n+]3c2SCC3)cc1
- EC50 [4]: 5.18 µM (active)
- IC50 [5]: 1.33 µM (active)
- EC50 [6]: 0.86 µM (active)

SMILES: Cc1cc(C)c(NC(=O)/C(=C/c2ccccc2)c2ccccc2)c(C)c1
- EC50 [7]: > 53 µM (inactive)
- IC50 [8]: > 50 µM (not active)
- IC50 [9]: 10.4 µM (active)
- IC50 [10]: > 20 µM (inactive)

SMILES: O=[N+]([O-])c1ccc(OCC(O)CN2CCN(c3ccccc3F)CC2)cc1 (stereo unspecified)
- EC50 [11]: 76.1 µM (inactive)
- IC50 [8]: > 50 µM (not active)
- EC50 [12]: 92.5 µM (inactive)

SMILES: O=C(COc1cccc2ccccc12)Nc1ccc(Cl)cc1C(=O)O
- EC50 [13]: > 350 µM (not active)
- IC50 [14]: 37.7 µM (active)
- IC50 [15]: > 25 µM (active)
- IC50 [16]: 5.31 µM (active)
- IC50 [17]: 52.6 µM (inactive)
- EC50 [18]: > 350 µM (not active)

SMILES: CCN(CC)S(=O)(=O)c1cc(NC(=O)CN2CCN(c3ccccn3)CC2)ccc1C
- EC50 [11]: 0.761 µM (active)
- EC50 [12]: 92.5 µM (inactive)

SMILES: Cc1nc(SCC(=O)c2cc3ccccc3oc2=O)c(C#N)c(-c2cccs2)c1C(=O)Nc1ccccc1
- EC50 [19]: > 99 µM (inactive)
- EC50 [20]: > 99 µM (inactive)

SMILES: O=C(Nc1ccc(C(=O)O)cc1)/C(=C\C=C\c1ccccc1)NC(=O)c1ccc(Br)cc1
- IC50 [1]: 29.6 µM (inactive)
- IC50 [2]: 11.5 µM (inactive)
- IC50 [3]: 83.3 µM (inactive)
